The text below walks through data of patent US10174029B2, “Pyrimidine-2,4-diamine derivatives for treatment of cancer” (THOMAS HELLEDAYS STIFTELSE FOR MEDICINSK FORSKNING, priority 2012, dated 2019).

Molecules are shown by their SMILES.

The target of the first assay is MTH1 (Homo sapiens, UniProt P36639). Description: MTH1 enzymatic assay and IC50 value determination (malachite green). As to conditions: MTH1 4.8 nM, dGTP 100 μM, 15 minutes at 22° C.; group: between 2 μM and 10 μM. The class given is biochemical. The method, boiled down: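 Malachite green detection of Pi after coupling dGTP hydrolysis to excess E. coli pyrophosphatase; 4.8 nM MTH1, 100 μM dGTP in Tris-acetate buffer with Mg2+ and DTT, 1% DMSO, 15 min at 22 °C. 12-point 1:3 compound series; absorbance at 630 nm; IC50 by four-parameter nonlinear regression.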
For the molecule `CCOC(=O)CNc1cc(-c2cccc(C)c2C)nc(N)n1` [Example 396, Ethyl 2-{[2-amino-6-(2,3-dimethylphenyl)pyrimidin-4-yl]amino}acetate], the IC50 (in general, the concentration at which inhibition is half-maximal) fell in the range of 2000 to 10000 nM.

`Cc1nnc(CNc2cc(-c3cccc(C)c3C)nc(N)n2)[nH]1` [Example 399, 6-(2,3-Dimethylphenyl)-4-N-[(5-methyl-4H-1,2,4-triazol-3-yl)methyl]pyrimidine-2,4-diamine] returned an IC50 of 2000 to 10000 nM.

The assay is the same for the next values; noted with them: MTH1 4.8 nM, dGTP 100 μM, 15 minutes at 22° C.; group: less than 200 nM.
In turn, `Cc1cccc(-c2cc(NCCCNS(=O)(=O)c3c(C)nn(C)c3Cl)nc(N)n2)c1C` [Example 389, N-(3-{[2-Amino-6-(2,3-dimethylphenyl)pyrimidin-4-yl]amino}propyl)-5-chloro-1,3-dimethyl-1H-pyrazole-4-sulfonamide] had an IC50 of under 200 nM. Same read-out and setting: next, `Cc1cccc(-c2cc(NCCCNS(=O)(=O)c3cn(C)c(C)n3)nc(N)n2)c1C` [Example 391, N-(3-{[2-Amino-6-(2,3-dimethylphenyl)pyrimidin-4-yl]amino}propyl)-1,2-dimethyl-1H-imidazole-4-sulfonamide]: under 200 nM; `Cc1cccc(-c2cc(NCCNc3ccc(C#N)cn3)nc(N)n2)c1C` [Example 397, 6-[(2-{[2-Amino-6-(2,3-dimethylphenyl)pyrimidin-4-yl]amino}ethyl)amino]pyridine-3-carbonitrile]: under 200 nM; `Cc1cccc(-c2cc(NCCCNS(=O)(=O)c3cccc(S(C)(=O)=O)c3)nc(N)n2)c1C` [Example 402, N-(3-{[2-Amino-6-(2,3-dimethylphenyl)pyrimidin-4-yl]amino}propyl)-3-methanesulfonylbenzene-1-sulfonamide]: under 200 nM. On the same count and under the same terms, to `Cc1cccc(-c2cc(NCCCNS(=O)(=O)c3ccccc3S(C)(=O)=O)nc(N)n2)c1C` [Example 403, N-(3-{[2-Amino-6-(2,3-dimethylphenyl)pyrimidin-4-yl]amino}propyl)-2-methanesulfonylbenzene-1-sulfonamide] belongs under 200 nM. Still for that read-out and setting: next, `Cc1ncsc1CCNc1cc(-c2cccc(Cl)c2Cl)nc(N)n1` [Example 405, 6-(2,3-dichlorophenyl)-4-N-[2-(4-methyl-1,3-thiazol-5-yl)ethyl]pyrimidine-2,4-diamine]: under 200 nM; `Cc1ncsc1CCNc1cc(-c2cccc(Cl)c2C)nc(N)n1` [Example 406, 6-(3-chloro-2-methylphenyl)-4-N-[2-(4-methyl-1,3-thiazol-5-yl)ethyl]pyrimidine-2,4-diamine]: under 200 nM. Molecule `Cc1cccc(-c2cc(NCCc3c[nH]cn3)nc(N)n2)c1C` [Example 408, 6-(2,3-dimethylphenyl)-4-N-[2-(1H-imidazol-4-yl)ethyl]pyrimidine-2,4-diamine] gave an IC50 of under 200 nM. Same read-out and setting: next, `Cc1cccc(-c2cc(NCCCc3nc4ccccc4[nH]3)nc(N)n2)c1C` [Example 409, 4-N-[3-(1H-1,3-benzodiazol-2-yl)propyl]-6-(2,3-dimethylphenyl)pyrimidine-2,4-diamine]: under 200 nM; `Cc1cccc(-c2cc(NCc3cnc(-c4ccccc4)s3)nc(N)n2)c1C` [Example 411, 6-(2,3-dimethylphenyl)-4-N-[(2-phenyl-1,3-thiazol-5-yl)methyl]pyrimidine-2,4-diamine]: under 200 nM; `CN(C)S(=O)(=O)c1ccc(CCNc2cc(-c3cccc(Cl)c3Cl)nc(N)n2)cc1` [Example 415, 4-(2-{[2-amino-6-(2,3-dichlorophenyl)pyrimidin-4-yl]amino}ethyl)-N,N-dimethylbenzene-1-sulfonamide]: under 200 nM.

Regarding `Cc1cccc(-c2cc(NCCc3ccc(S(=O)(=O)N(C)C)cc3)nc(N)n2)c1C` [Example 416, 4-(2-{[2-amino-6-(2,3-dimethylphenyl)pyrimidin-4-yl]amino}ethyl)-N,N-dimethylbenzene-1-sulfonamide], the IC50 is under 200 nM. In turn, `Nc1nc(NC2CC2)cc(-c2ccc(Cl)c(Cl)c2Cl)n1` [Example 418, 4-N-Cyclopropyl-6-(2,3,4-trichlorophenyl)pyrimidine-2,4-diamine] gave an IC50 of under 200 nM. `Nc1nc(NCCc2ccc(Cl)cc2)cc(-c2ccc(Cl)c(Cl)c2Cl)n1` [Example 419, 4-N-[2-(4-Chlorophenyl)ethyl]-6-(2,3,4-trichlorophenyl)pyrimidine-2,4-diamine] registered an IC50 of under 200 nM.

The molecule `[2H]C([2H])([2H])Nc1cc(-c2cccc(C)c2C)nc(N)n1` [Example 420, 6-(2,3-dimethylphenyl)-4-N—(^2H3)methylpyrimidine-2,4-diamine] displayed an IC50 of under 200 nM. `[2H]C([2H])([2H])Nc1cc(-c2cccc(C)c2Cl)nc(N)n1` [Example 422, 6-(2-chloro-3-methylphenyl)-4-N—(^2H3)methylpyrimidine-2,4-diamine]: the IC50 was under 200 nM. On the same count and under the same terms, to `Cc1cccc(-c2cc(NCCCCNS(=O)(=O)c3ccc(S(C)(=O)=O)cc3)nc(N)n2)c1C` [Example 424, N-(4-{[2-amino-6-(2,3-dimethylphenyl)pyrimidin-4-yl]amino}butyl)-4-methanesulfonylbenzene-1-sulfonamide] belongs under 200 nM; to `Cc1c(C#N)cccc1-c1cc(NCCc2ccc(S(N)(=O)=O)cc2)nc(N)n1` [Example 426, 4-(2-{[2-amino-6-(3-cyano-2-methylphenyl)pyrimidin-4-yl]amino}ethyl)benzene-1-sulfonamide], under 200 nM; to `Cc1c(-c2cc(NCCc3ccc(S(N)(=O)=O)cc3)nc(N)n2)ccc(Cl)c1Cl` [Example 428, 4-(2-{[2-amino-6-(3,4-dichloro-2-methylphenyl)pyrimidin-4-yl]amino}ethyl)benzene-1-sulfonamide], under 200 nM.

Take `C#CCNc1cc(-c2cccc(Cl)c2C)nc(N)n1` [Example 429, 6-(3-chloro-2-methylphenyl)-4-N-(prop-2-yn-1-yl)pyrimidine-2,4-diamine]: the IC50 was under 200 nM. Still for that read-out and setting: to `Cc1c(F)ccc(-c2cc(NCCc3ccc(S(C)(=O)=O)cc3)nc(N)n2)c1C` [Example 430, 6-(4-fluoro-2,3-dimethylphenyl)-4-N-[2-(4-methanesulfonylphenyl)ethyl]pyrimidine-2,4-diamine] belongs under 200 nM. Still for that read-out and setting: to `Cc1cc(Cl)ccc1-c1cc(NCCc2ccc(S(N)(=O)=O)cc2)nc(N)n1` [Example 432, 4-(2-{[2-amino-6-(4-chloro-2-methylphenyl)pyrimidin-4-yl]amino}ethyl)benzene-1-sulfonamide] belongs under 200 nM. For `Nc1nc(NCCc2ccc(S(N)(=O)=O)cc2)cc(-c2ccc(F)c(F)c2F)n1` [Example 434, 4-(2-{[2-amino-6-(2,3,4-trifluorophenyl)pyrimidin-4-yl]amino}ethyl)benzene-1-sulfonamide], the IC50 is under 200 nM. Same read-out and setting: next, `Cc1c(F)ccc(-c2cc(NC3CC3)nc(N)n2)c1C` [Example 436, 4-N-cyclopropyl-6-(4-fluoro-2,3-dimethylphenyl)pyrimidine-2,4-diamine]: under 200 nM.

`Cc1cc(-c2cc(NCCc3ccc(S(N)(=O)=O)cc3)nc(N)n2)c(C)cc1F` [Example 439, 4-(2-{[2-amino-6-(4-fluoro-2,5-dimethylphenyl)pyrimidin-4-yl]amino}ethyl)benzene-1-sulfonamide] had an IC50 of under 200 nM. On the same count and under the same terms, next, `Cc1cccc(-c2cc(NCCNc3ccc(S(N)(=O)=O)cn3)nc(N)n2)c1C` [Example 443, 6-[(2-{[2-amino-6-(2,3-dimethylphenyl)pyrimidin-4-yl]amino}ethyl)amino]pyridine-3-sulfonamide]: under 200 nM; `Cc1cccc(-c2cc(NCCCNS(=O)(=O)c3ccc(S(N)(=O)=O)cc3)nc(N)n2)c1C` [Example 444, 1-N-(3-{[2-amino-6-(2,3-dimethylphenyl)pyrimidin-4-yl]amino}propyl)benzene-1,4-disulfonamide]: under 200 nM.

Take `CS(=O)(=O)c1ccc(CCNc2cc(-c3cccc(Cl)c3Cl)nc(N)n2)cc1` [Example 445, 6-(2,3-dichlorophenyl)-4-N-[2-(4-methanesulfonylphenyl)ethyl]pyrimidine-2,4-diamine]: the IC50 is under 200 nM.

Take `COc1cccc(NCCNc2cc(-c3cccc(C)c3C)nc(N)n2)c1` [Example 447, 6-(2,3-dimethylphenyl)-4-N-{2-[(3-methoxyphenyl)amino]ethyl}pyrimidine-2,4-diamine]: the IC50 is under 200 nM. Still for that read-out and setting: next, `Cc1cccc(-c2cc(NCCNc3ccc(Br)cn3)nc(N)n2)c1C` [Example 451, 4-N-{2-[(5-bromopyridin-2-yl)amino]ethyl}-6-(2,3-dimethylphenyl)pyrimidine-2,4-diamine]: under 200 nM; `Cc1noc(C)c1-c1cc(NCCc2ccc(Cl)cc2)nc(N)n1` [Example 453, 4-N-[2-(4-chlorophenyl)ethyl]-6-(dimethyl-1,2-oxazol-4-yl)pyrimidine-2,4-diamine]: under 200 nM; `Cc1cccc(-c2cc(NCCNc3cccnc3)nc(N)n2)c1C` [Example 454, 6-(2,3-dimethylphenyl)-4-N-{2-[(pyridin-3-yl)amino]ethyl}pyrimidine-2,4-diamine]: under 200 nM.
